Assay results as given in patent US20220153745A1, “DISUBSTITUTED BENZOTHIENYL-PYRROLOTRIAZINES AND THEIR USE AS FGFR KINASE INHIBITORS” (Bayer Intellectual Property GmbH, priority 2011, published 2022).
Where a name gives a salt, the structure may show the parent alone.

Tests used:
mTOR = target: T1, mTOR (Homo sapiens, UniProt P42345); assay: mTOR kinase assay (TR-FRET, for comparative purposes); assay type: biochemical; settings: read-out: mTOR % inhibition @ 1 μM, mean inhibition at 1 μM test compound, 40 μM ATP
T1 construct: human mTOR amino acids from 1360 to 2549; purchased Invitrogen 4753; host or cells: insect cells
T1 sequence (P42345 1360-2549): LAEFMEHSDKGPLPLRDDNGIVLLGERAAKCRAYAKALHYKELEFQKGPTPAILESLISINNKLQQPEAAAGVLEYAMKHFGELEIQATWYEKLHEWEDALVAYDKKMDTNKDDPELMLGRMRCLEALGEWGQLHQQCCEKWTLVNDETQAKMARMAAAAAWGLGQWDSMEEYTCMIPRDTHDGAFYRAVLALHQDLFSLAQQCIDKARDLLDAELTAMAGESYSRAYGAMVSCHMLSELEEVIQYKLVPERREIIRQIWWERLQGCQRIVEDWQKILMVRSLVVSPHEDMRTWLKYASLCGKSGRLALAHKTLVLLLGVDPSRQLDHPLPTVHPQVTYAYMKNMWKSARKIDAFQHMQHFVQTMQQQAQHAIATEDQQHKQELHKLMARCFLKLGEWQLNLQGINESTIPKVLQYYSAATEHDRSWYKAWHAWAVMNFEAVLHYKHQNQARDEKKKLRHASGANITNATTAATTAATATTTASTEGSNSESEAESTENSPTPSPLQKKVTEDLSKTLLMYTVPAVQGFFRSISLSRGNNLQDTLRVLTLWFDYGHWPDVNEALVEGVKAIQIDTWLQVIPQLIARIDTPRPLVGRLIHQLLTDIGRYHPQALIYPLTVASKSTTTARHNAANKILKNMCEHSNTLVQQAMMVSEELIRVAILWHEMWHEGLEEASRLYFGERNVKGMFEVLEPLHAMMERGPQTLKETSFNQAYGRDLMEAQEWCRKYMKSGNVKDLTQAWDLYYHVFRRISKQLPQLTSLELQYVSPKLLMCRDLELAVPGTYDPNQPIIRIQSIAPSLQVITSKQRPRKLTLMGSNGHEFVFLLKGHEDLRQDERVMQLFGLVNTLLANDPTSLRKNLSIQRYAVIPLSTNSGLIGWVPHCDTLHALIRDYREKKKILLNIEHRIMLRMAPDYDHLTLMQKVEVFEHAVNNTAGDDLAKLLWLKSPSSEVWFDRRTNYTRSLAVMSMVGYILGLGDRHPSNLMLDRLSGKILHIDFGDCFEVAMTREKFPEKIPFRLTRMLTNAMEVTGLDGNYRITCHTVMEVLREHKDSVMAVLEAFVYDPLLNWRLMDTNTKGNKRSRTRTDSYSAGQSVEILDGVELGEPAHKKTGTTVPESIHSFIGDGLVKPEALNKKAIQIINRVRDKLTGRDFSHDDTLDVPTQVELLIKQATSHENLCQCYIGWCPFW

FGFR-1 = target: T2, FGFR-1 (Homo sapiens, UniProt P11362); assay: FGFR-1 high ATP kinase assay (TR-FRET); assay type: biochemical; settings: 2 mM ATP, 15 min pre-incubation; compounds of the invention (Table 1A)
T2 construct: human FGFR-1 from amino acids G400 to R800 as in GenBank entry NM_015850; purchased Proqinase 0101-0000-1; host or cells: SF9 insect cells (baculovirus)
T2 sequence (P11362 402-822): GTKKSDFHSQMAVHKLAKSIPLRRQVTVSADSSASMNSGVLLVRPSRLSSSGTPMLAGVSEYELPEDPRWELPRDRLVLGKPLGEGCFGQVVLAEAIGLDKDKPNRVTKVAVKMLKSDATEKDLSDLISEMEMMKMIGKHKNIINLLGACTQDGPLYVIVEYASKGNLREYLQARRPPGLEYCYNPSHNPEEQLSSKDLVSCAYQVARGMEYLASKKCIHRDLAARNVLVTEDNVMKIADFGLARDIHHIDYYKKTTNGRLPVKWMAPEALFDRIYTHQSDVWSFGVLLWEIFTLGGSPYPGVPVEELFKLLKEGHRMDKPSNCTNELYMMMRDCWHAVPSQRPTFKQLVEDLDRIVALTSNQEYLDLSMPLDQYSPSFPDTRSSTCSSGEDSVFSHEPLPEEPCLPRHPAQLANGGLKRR

FGFR-3 = target: T3, FGFR-3 (Homo sapiens, UniProt P22607); assay: FGFR-3 kinase assay (TR-FRET); assay type: biochemical; settings: 10 μM ATP, 15 min pre-incubation; compounds of the invention (Table 2A)
T3 construct: human FGFR-3 from amino acids R397 to T806 as in NCBI/Protein entry NP_000133.1; purchased Proqinase 1068-0000-1; host or cells: SF9 insect cells (baculovirus)
T3 sequence (P22607 397-806): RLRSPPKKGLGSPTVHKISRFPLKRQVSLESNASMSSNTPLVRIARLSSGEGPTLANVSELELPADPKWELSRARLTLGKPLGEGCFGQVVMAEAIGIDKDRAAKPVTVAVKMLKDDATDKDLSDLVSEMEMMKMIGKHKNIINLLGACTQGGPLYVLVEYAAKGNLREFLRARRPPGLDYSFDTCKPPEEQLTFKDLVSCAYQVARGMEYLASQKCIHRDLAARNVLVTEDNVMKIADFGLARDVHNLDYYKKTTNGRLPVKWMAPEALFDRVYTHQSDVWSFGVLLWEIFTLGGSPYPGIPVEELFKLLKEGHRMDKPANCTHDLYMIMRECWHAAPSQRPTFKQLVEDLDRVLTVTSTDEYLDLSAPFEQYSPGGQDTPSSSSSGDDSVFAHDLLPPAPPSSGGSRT

[1] = test system: Human umbilical vein endothelial cells (HUVEC); assay: Inhibition of hFGF-2 mediated HUVEC proliferation; assay type: cell-based; settings: 72 h

Compound	inhibition at 1 µM (mTOR)	IC50 (FGFR-1)	IC50 (FGFR-3)	IC50 [1]
CCOCc1c(-c2cc3cc(C)cc(OC)c3s2)c2c(N)ncnn2c1CN1CCN(C(C)=O)CC1 [Example 11, 1-(4-{[4-Amino-6-(ethoxymethyl)-5-(7-methoxy-5-methyl-1-benzothiophen-2-yl)pyrrolo[2,1-f][1,2,4]triazin-7-yl]methyl}piperazin-1-yl)ethanone dihydrochloride]	33.2%	6.5 nM	–	–
COCc1c(-c2cc3cc(C)cc(OC)c3s2)c2c(N)ncnn2c1CN1CC[C@](C)(N)C1 [Example 14, 7-{[(3S)-3-Amino-3-methylpyrrolidin-1-yl]methyl}-6-(methoxymethyl)-5-(7-methoxy-5-methyl-1-benzothiophen-2-yl)pyrrolo[2,1-f][1,2,4]triazin-4-amine trihydrochloride]	15.7%	–	2.5 nM	–
COCc1c(-c2cc3cc(C)cc(OC)c3s2)c2c(N)ncnn2c1CN1CCN(C(C)=O)CC1 [Example 16, 1-(4-{[4-Amino-6-(methoxymethyl)-5-(7-methoxy-5-methyl-1-benzothiophen-2-yl)pyrrolo[2,1-f]-[1,2,4]triazin-7-yl]methyl}piperazin-1-yl)ethanone dihydrochloride]	36.9%	–	9.4 nM	–
COc1cc(C)cc2cc(-c3c(COCCO)c(CN4CCNCC4)n4ncnc(N)c34)sc12 [Example 22, 2-{[4-Amino-5-(7-methoxy-5-methyl-1-benzothiophen-2-yl)-7-(piperazin-1-ylmethyl)pyrrolo[2,1-f]-[1,2,4]triazin-6-yl]methoxy}ethanol dihydrochloride]	17.6%	0.9 nM	4.7 nM	–
COc1cc(C)cc2cc(-c3c(COCCN)c(CN4CCNCC4)n4ncnc(N)c34)sc12 [Example 30, 6-[(2-Aminoethoxy)methyl]-5-(7-methoxy-5-methyl-1-benzothiophen-2-yl)-7-(piperazin-1-ylmethyl)pyrrolo[2,1-f][1,2,4]triazin-4-amine trihydrochloride]	21.1%	2.8 nM	6.4 nM	–
CCNCc1c(-c2cc3cc(C)cc(OC)c3s2)c2c(N)ncnn2c1CN1CCNCC1 [Example 38, 6-[(Ethylamino)methyl]-5-(7-methoxy-5-methyl-1-benzothiophen-2-yl)-7-(piperazin-1-ylmethyl)pyrrolo[2,1-f][1,2,4]triazin-4-amine trihydrochloride]	20.8%	6.9 nM	–	–
COc1cc(C)cc2cc(-c3c(CNCCO)c(CN4CCNCC4)n4ncnc(N)c34)sc12 [Example 39, 2-({[4-Amino-5-(7-methoxy-5-methyl-1-benzothiophen-2-yl)-7-(piperazin-1-ylmethyl)pyrrolo[2,1-f]-[1,2,4]triazin-6-yl]methyl}amino)ethanol trihydrochloride]	11.5%	1.1 nM	4.9 nM	–
COc1cc(C)cc2cc(-c3c(CNC4CCC4)c(CN4CCNCC4)n4ncnc(N)c34)sc12 [Example 44, 6-[(Cyclobutylamino)methyl]-5-(7-methoxy-5-methyl-1-benzothiophen-2-yl)-7-(piperazin-1-ylmethyl)pyrrolo[2,1-f][1,2,4]triazin-4-amine trihydrochloride]	13.3%	2.1 nM	–	–
COc1cc(C)cc2cc(-c3c(CN4CCCC4)c(CN4CCNCC4)n4ncnc(N)c34)sc12 [Example 45, 5-(7-Methoxy-5-methyl-1-benzothiophen-2-yl)-7-(piperazin-1-ylmethyl)-6-(pyrrolidin-1-ylmethyl)pyrrolo[2,1-f][1,2,4]triazin-4-amine trihydrochloride]	15.5%	3.4 nM	9.7 nM	–
COc1cc(C)cc2cc(-c3c(CNC4CC4)c(CN4CCNCC4)n4ncnc(N)c34)sc12 [Example 46, 6-[(Cyclopropylamino)methyl]-5-(7-methoxy-5-methyl-1-benzothiophen-2-yl)-7-(piperazin-1-ylmethyl)pyrrolo[2,1-f][1,2,4]triazin-4-amine trihydrochloride]	11%	3.2 nM	8.1 nM	–
COc1cc(C)cc2cc(-c3c(CNCC4CC4)c(CN4CCNCC4)n4ncnc(N)c34)sc12 [Example 47, 6-{[(Cyclopropylmethyl)amino]methyl}-5-(7-methoxy-5-methyl-1-benzothiophen-2-yl)-7-(piperazin-1-ylmethyl)pyrrolo[2,1-f][1,2,4]triazin-4-amine trihydrochloride]	14.7%	1.7 nM	3.4 nM	–
COc1cc(C)cc2cc(-c3c(-c4cnco4)c(CN4CCNCC4)n4ncnc(N)c34)sc12 [Example 61, 5-(7-Methoxy-5-methyl-1-benzothiophen-2-yl)-6-(1,3-oxazol-5-yl)-7-(piperazin-1-ylmethyl)pyrrolo[2,1-f][1,2,4]triazin-4-amine trihydrochloride]	15.9%	–	0.9 nM	–
COc1cc(C)cc2cc(-c3c(CN)c(CN4CCNCC4)n4ncnc(N)c34)sc12 [Example 62, 6-(Aminomethyl)-5-(7-methoxy-5-methyl-1-benzothiophen-2-yl)-7-(piperazin-1-ylmethyl)pyrrolo[2,1-f][1,2,4]triazin-4-amine trihydrochloride]	0.2%	3.1 nM	11 nM	–
COc1cc(C)cc2cc(-c3c(CNC(C)=O)c(CN4CCNCC4)n4ncnc(N)c34)sc12 [Example 64, N-{[4-Amino-5-(7-methoxy-5-methyl-1-benzothiophen-2-yl)-7-(piperazin-1-ylmethyl)pyrrolo[2,1-f][1,2,4]triazin-6-yl]methyl}acetamide dihydrochloride]	1.1%	1 nM	2.9 nM	–
COc1cc(C)cc2cc(-c3c(CO)c(Cl)n4ncnc(N)c34)sc12 [Example 79, [4-Amino-7-chloro-5-(7-methoxy-5-methyl-1-benzothiophen-2-yl)pyrrolo[2,1-f][1,2,4]triazin-6-yl]-methanol]	14.7%	–	–	3.5 nM
COc1cc(C)cc2cc(-c3c(CNCC(C)(C)O)c(Cl)n4ncnc(N)c34)sc12 [Example 81, 1-({[4-Amino-7-chloro-5-(7-methoxy-5-methyl-1-benzothiophen-2-yl)pyrrolo[2,1-f][1,2,4]triazin-6-yl]methyl}amino)-2-methylpropan-2-ol formiate]	4.1%	–	–	1.6 nM
COc1cc(C)cc2cc(-c3c(C)c(CN4CCNCC4)n4ncnc(N)c34)sc12 [Example 84, 5-(7-Methoxy-5-methyl-1-benzothiophen-2-yl)-6-methyl-7-(piperazin-1-ylmethyl)pyrrolo[2,1-f][1,2,4]triazin-4-amine formiate]	9.1%	–	–	46.6 nM
